In the assay the target is T1, carbonic anhydrase II (CAII) (Homo sapiens, UniProt P00918).
T1 construct: gene CA2
Kind of assay: Wilbur-Anderson electrometric CO2 hydration assay with recombinant human CAII. In kind it is biochemical.

In general, IC50 refers to the concentration that inhibits the measured activity by half. With `CC(=O)Nc1ccc(CC(=O)O)cc1` [actarit], the IC50 turned out to be 422 nM.

The values are drawn from publication PMC7699199, “Identification and Validation of Carbonic Anhydrase II as the First Target of the Anti-Inflammatory Drug Actarit” (Biomolecules, 2020).
